Values after ≈ are worked out from the molar mass of the structure shown.

Assay [1] has as its system C. albicans ATCC 10231 (strain A). The experiment in a line: Time-kill assay, strain A. The class given is cell-based, Candida albicans. Here is the method:
(§1) Time-kill assays were used to assess the inhibitory efficiency of 7b against three yeast strains, C. albicans ATCC 10231 (strain A), C. parapsilosis ATCC 22019 (strain J), and C. neoformans clinical isolate CN1. The protocol for time-kill assays followed methods previously described with minor modifications. Yeast cultures were grown overnight in YPD broth at 35 °C with shaking (200 rpm). A working stock of fungal cells was made by diluting cultures in RPMI 1640 medium to an OD600 of 0.125, approximately 1 × 10^6 CFU/mL. From the working stock, 100 μL of cells was added to 4.9 mL of RPMI 1640 medium in sterile culture tubes, making the starting fungal cell concentration […]. Compounds were then added to the fungal cells. The treatment conditions included sterile control, growth control, TOB (parent; negative control), voriconazole (VOR) at 1× MIC (positive control), 7b at 1× and 4× MIC. The treated fungal cultures were incubated at 35 °C with shaking (200 rpm) for 24 h. The samples were taken from the different treatments at regular time points (0, 3, 6, 9, 12, and 24 h.) and plated in duplicates. For each time point, cultures were vortexed, 100 μL of culture was aspirated, and 10-fold serial dilutions were made in sterile ddH2O. From the appropriate dilutions, 100 μL of fungal suspension was spread on PDA plates and incubated at 35 °C for 48 h before the colony counts were determined. At 24 h, 50 μL of 1 mM resazurin was added to the treatments and incubated at 35 °C with rotation for 2 h in the dark for visual inspection. Experiments were performed in duplicate.

Assay [2] deals with C. neoformans (strain CN1). The experiment in a line: Time-kill assay, CN1. The class given is cell-based, Cryptococcus neoformans. Here is the method: as §1
The subject of assay [3] is C. albicans ATCC 10231 (strain A). In words: Membrane permeabilization assay using propidium iodide staining. As to conditions: 7b at 2× MIC or 4× MIC; TOB 31.3 μg/mL; 2 h treatment; compared to untreated cells. In kind it is cell-based, Candida albicans. Here is the method: A fresh culture of C. albicans ATCC 10231 (strain A) was prepared in 5 mL of YPD broth in a Falcon tube and was grown overnight at 35 °C at 200 rpm. […] TOB (31.3 μg/mL) was used as a negative control. The cell suspensions were then treated for 2 h at 35 °C with continuous agitation (200 rpm). To prepare a positive control sample, C. albicans ATCC 10231 (strain A) cells were killed by heat shock at 95 °C for 5 min as described by Ocampo and Barrientos. The cells were then centrifuged and resuspended in 500 μL of PBS buffer (pH 7.2 adjusted at room temperature). Subsequently, the cells were treated with propidium iodide (9 μM, final concentration) and incubated for 20 min at room temperature in the dark. […] The data were obtained from at least two independent experiments. The images were also post-processed, utilizing automatic contrast and brightness setting in Microsoft PowerPoint 2013 to eliminate background noise.

For assay [4], the system named is C. neoformans clinical isolates CN1-3. In words: MIC across C. neoformans clinical isolates CN1-3. The class given is cell-based, Cryptococcus neoformans. As to conditions: Cryptococcus neoformans. Here is the method: The final concentrations of compounds 3, 4, 7a, 7b, 9, and 16, as well as that of TOB tested in this study ranged from 0.24–62.5 μg/mL. CAS was used as a positive control and the final concentrations tested for CAS ranged from 0.03–31.3 μg/mL. Briefly, overnight yeast cultures were grown in yeast peptone dextrose (YPD) broth and the cell density was adjusted to an OD600 of 0.12 (~1 × 10^6 CFU/mL) by using a spectrophotometer. Yeast cell suspensions were further diluted to achieve 1–5 × 10^3 CFU/mL in RPMI 1640 medium, and 100 μL of these yeast cells was added to 96-well microtiter plates containing RPMI 1640 medium and titrated compounds. Each test was performed in triplicate. The plates were incubated at 35 °C for 48 h.

Assay [5] concerns C. parapsilosis ATCC 22019 (strain J). In words: Time-kill assay, strain J. The class given is cell-based, Candida parapsilosis. How it is done:
as §1

Assay [6] relates to Cryptococcus neoformans MYA-895. On the set-up: method as in PMID 26033722. As to conditions: previously observed; cited from earlier work.

With `NC[C@H]1O[C@H](O[C@H]2[C@H](O)[C@@H](O[C@H]3O[C@H](CO)[C@@H](O)[C@H](N)[C@H]3O)[C@H](N)C[C@@H]2N)[C@H](N)C[C@@H]1O` [TOB, tobramycin], the “effect on growth (time-kill, in words)” value was “did not affect the growth” in assay [1] (24-h period, TOB 15.6 μg/mL, VOR 1× MIC 1.0 μg/mL); “little to no growth inhibitory effect” in assay [2] (controls TOB 15.6 μg/mL and VOR 1× MIC, 24-h period); “did not affect the growth” in assay [5] (TOB 15.6 μg/mL, 24-h period). Further, the “propidium iodide (PI) dye uptake (in words)” value in assay [3] was “negligible staining”. The molecule further gave an MIC in assay [4] greater than 62.5 µg/mL.
With `CCCCCCCCCCCCc1cn(C[C@H]2O[C@H](O[C@@H]3[C@@H](O)[C@H](O[C@H]4O[C@H](CN)[C@@H](O)C[C@H]4N)[C@@H](N)C[C@H]3N)[C@H](O)[C@@H](N)[C@@H]2O)nn1` [Compound 7b, O-3-Amino-3,6-dideoxy-6-(4-dodecyl-1H-1,2,3-triazol-1-yl)-α-D-glucopyranosyl-(1→6)-O-[2,6-diamino-2,3,6-trideoxy-α-D-ribo-hexopyranosyl-(1→4)]-2-deoxy-D-streptamine], the “reduction of CFU” value in assay [1] (15.6 μg/mL (4× MIC), after 6 h of treatment) is no less than 2 log10; in assay [1] (1× MIC (7b 3.9 μg/mL; VOR 1.0 μg/mL), after 9 h of treatment), no less than 2 log10; in assay [2] (0.49 μg/mL (1× MIC), after 3 h of treatment) it was no less than 2 log10. Also, the “time to complete fungal cell death” value amounted to 6 h in assay [2] (0.49 μg/mL (1× MIC)) and 3 h in assay [2] (1.95 μg/mL (4× MIC)). Further, the “propidium iodide (PI) dye uptake (in words)” value in assay [3] is given as “larger influx of PI dye”. The “decrease in CFU” value in assay [5] (1.95 μg/mL (1× MIC), after 24 h of treatment) was no less than 2 log10. Moreover, the “effect on growth (time-kill, in words)” value in assay [5] (7.8 μg/mL (4× MIC), after 24 h) was “completely killed”; in assay [5] (7b at 1.95 μg/mL (1× MIC)), “fungistatic effect at 1.95 μg/mL (1× MIC) only for the first 3 h”.
As for `CCCCCCCCCCCCSC[C@H]1O[C@H](O[C@@H]2[C@@H](O)[C@H](O[C@H]3O[C@H](CN)[C@@H](O)C[C@H]3N)[C@@H](N)C[C@H]2N)[C@H](O)[C@@H](N)[C@@H]1O` [Compound 3, O-3-Amino-3-deoxy-6-S-dodecyl-6-thio-α-D-glucopyranosyl-(1→6)-O-[2,6-diamino-2,3,6-trideoxy-α-D-ribo-hexopyranosyl-(1→4)]-2-deoxy-D-streptamine], the MIC value in assay [6] was 1.95 µg/mL (≈ 2.99 µM).

Source of the values: publication PMC5971061, “Differential Effects of Linkers on the Activity of Amphiphilic Tobramycin Antifungals” (Molecules : A Journal of Synthetic Chemistry and Natural …, 2018).
